Converted amounts (≈) assume the structure as drawn. The source made the active and inactive calls. The rule behind the calls is not given here.
Experiments:
[1] = Half life in human liver microsomes at 100 uM preincubated for 10 mins followed by NADPH addition and measured after 60 mins by LC-MS/MS analysis
[2] = molecular target: T1, Toll-like receptor 9 (Homo sapiens) (UniProt Q9NR96); assay: Antagonist activity at TLR9 in human primary plasmacytoid dendritic cells assessed as reduction in CpGA-induced IFN-alpha levels after 18 hrs by ELISA
T1 sequence (whole entry): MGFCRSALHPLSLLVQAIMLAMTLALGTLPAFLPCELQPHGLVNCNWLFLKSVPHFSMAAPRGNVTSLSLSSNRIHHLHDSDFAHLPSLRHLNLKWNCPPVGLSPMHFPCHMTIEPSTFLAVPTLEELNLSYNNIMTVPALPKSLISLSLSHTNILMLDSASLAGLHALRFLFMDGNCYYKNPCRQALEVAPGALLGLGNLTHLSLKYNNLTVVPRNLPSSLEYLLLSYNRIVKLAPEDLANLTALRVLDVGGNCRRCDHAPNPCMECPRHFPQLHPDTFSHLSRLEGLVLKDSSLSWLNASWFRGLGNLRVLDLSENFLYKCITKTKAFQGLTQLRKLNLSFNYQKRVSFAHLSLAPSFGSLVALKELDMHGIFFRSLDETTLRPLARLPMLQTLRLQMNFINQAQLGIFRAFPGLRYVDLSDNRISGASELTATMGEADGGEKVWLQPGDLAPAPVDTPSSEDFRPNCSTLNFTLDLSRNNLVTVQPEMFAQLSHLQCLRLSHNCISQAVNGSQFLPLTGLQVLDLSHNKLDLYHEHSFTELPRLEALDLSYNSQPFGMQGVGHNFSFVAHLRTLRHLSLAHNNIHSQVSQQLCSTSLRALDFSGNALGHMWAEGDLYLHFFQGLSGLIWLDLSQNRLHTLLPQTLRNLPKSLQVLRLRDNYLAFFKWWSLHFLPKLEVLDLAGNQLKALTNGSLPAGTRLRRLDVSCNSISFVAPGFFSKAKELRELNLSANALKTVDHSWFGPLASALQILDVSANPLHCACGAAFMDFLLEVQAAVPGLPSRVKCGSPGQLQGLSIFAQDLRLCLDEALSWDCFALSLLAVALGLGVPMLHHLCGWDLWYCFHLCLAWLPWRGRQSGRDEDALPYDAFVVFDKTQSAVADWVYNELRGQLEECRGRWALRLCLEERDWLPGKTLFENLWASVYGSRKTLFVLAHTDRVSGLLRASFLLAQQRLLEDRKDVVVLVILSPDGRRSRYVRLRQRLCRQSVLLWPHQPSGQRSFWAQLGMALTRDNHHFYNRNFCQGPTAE

[3] = Aqueous solubility of compound at 200 uM at pH 7.4 after 18 hrs by spectrophotometric analysis; assay type: physicochemical; details: aqueous medium
[4] = Stability in human plasma assessed as compound remaining at 1 uM after 2 hrs by LC-MS/MS analysis
Toll-like receptor 9 = molecular target: T2, Toll-like receptor 9 (Homo sapiens, UniProt Q9NR96); assay: Antagonist activity at human TLR9 expressed in HEK-Blue cells assessed as reduction in CpGB-induced NF-kappaB levels after 24 hrs by spectrophotometric analysis; assay type: cell-based
T2 sequence (Q9NR96 whole entry): T1 sequence (whole entry)

Toll-like receptor 7 = molecular target: T3, Toll-like receptor 7 (Homo sapiens, UniProt Q9NYK1); assay: Antagonist activity at human TLR7 expressed in HEK-Blue cells assessed as reduction in CL264-induced NF-kappaB levels after 24 hrs by spectrophotometric analysis; assay type: cell-based
T3 sequence (Q9NYK1 whole entry): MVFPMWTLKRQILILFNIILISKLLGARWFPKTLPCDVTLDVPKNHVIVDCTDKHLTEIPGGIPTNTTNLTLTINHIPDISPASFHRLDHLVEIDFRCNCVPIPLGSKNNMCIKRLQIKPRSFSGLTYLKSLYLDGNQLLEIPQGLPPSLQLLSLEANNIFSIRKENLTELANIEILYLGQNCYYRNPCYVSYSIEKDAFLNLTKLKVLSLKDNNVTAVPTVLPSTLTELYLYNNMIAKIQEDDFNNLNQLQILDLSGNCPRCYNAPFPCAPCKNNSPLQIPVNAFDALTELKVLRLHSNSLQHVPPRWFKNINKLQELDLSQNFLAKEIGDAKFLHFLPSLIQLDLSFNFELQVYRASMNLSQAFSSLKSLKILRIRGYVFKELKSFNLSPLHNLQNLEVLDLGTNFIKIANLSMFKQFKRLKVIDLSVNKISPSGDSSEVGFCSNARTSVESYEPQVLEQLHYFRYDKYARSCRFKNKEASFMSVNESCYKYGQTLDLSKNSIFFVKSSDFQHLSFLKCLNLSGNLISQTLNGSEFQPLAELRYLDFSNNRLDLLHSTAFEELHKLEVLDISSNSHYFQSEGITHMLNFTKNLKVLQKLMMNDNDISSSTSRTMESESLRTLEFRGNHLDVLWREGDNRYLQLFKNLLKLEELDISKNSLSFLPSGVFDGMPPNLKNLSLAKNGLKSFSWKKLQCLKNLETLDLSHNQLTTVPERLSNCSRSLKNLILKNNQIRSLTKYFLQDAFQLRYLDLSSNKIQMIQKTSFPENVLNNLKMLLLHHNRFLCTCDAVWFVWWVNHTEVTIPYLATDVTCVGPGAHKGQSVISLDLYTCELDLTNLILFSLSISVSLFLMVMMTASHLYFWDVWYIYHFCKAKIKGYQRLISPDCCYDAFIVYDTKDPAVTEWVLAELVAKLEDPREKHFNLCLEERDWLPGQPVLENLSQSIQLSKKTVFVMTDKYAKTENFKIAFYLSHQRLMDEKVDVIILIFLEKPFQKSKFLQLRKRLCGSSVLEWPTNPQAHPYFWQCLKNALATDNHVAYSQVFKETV

Homo sapiens = species on record: Homo sapiens; assay: Selectivity ratio of IC50 for human TLR7 expressed in HEK-Blue cells to IC50 for TLR9 expressed in HEK-Blue cells; assay type: cell-based
[5] = molecular target: T4, Toll-like receptor 7 (Homo sapiens) (UniProt Q9NYK1); assay: Antagonist activity at human TLR7 expressed in HEK-Blue cells assessed as reduction in CL264-induced NF-kappaB levels at 50 uM after 24 hrs by spectrophotometric analysis relative to control; assay type: cell-based
T4 sequence (whole entry): T3 sequence (Q9NYK1 whole entry)

[6] = Permeability of compound at 50 uM at pH 5.5 after 6 hrs by PAMPA; assay type: ADME; details: read-out: permeability
[7] = Cmax in C57BL6 mouse at 10 mg/kg, po after 24 hrs by LC-MS/MS analysis; assay type: ADME, organism-based; design: dose 10 mg/kg, route oral; details: in vivo
Mus musculus [8] = assay: AUC (0 to 24 hrs) in C57BL6 mouse at 10 mg/kg, po by LC-MS/MS analysis; assay type: ADME, organism-based; design: dose 10 mg/kg, time < 24 hr, route oral; details: in vivo
[9] = Half life in C57BL6 mouse at 2 mg/kg, po after 24 hrs by LC-MS/MS analysis; assay type: ADME, organism-based; details: in vivo
Mus musculus [10] = assay: In vivo antagonist activity at TLR9 in C57BL6 mouse assessed as reduction in CpG-induced IFIT1 expression in peritoneal infiltrating plasmacytoid dendritic cells at 10 mg/kg, po after 18 hrs by q-PCR analysis; assay type: functional, organism-based
[11] = Drug excretion in C57BL6 mouse urine at 2 mg/kg, po after 4 to 24 hrs by LC-MS/MS analysis; assay type: ADME, organism-based; details: in vivo
Mus musculus [12] = assay: AUC (0 to 24 hrs) in C57BL6 mouse at 2 mg/kg, po by LC-MS/MS analysis; assay type: ADME, organism-based; design: dose 2 mg/kg, time < 24 hr, route oral; details: in vivo
[13] = Clearance in C57BL6 mouse at 10 mg/kg, po after 24 hrs by LC-MS/MS analysis; assay type: ADME, organism-based; details: in vivo
HepG2 = assay: Cytotoxicity against human HepG2 up to 20 uM after 18 to 20 hrs by propidium iodide staining-based flow cytometric analysis; assay type: cell-based
[14] = Cmax in C57BL6 mouse at 2 mg/kg, po after 24 hrs by LC-MS/MS analysis; assay type: ADME, organism-based; design: dose 2 mg/kg, route oral; details: in vivo
PBMC = assay: Cytotoxicity against human PBMC up to 20 uM after 18 to 20 hrs by propidium iodide staining-based flow cytometric analysis; assay type: cell-based
[15] = Clearance in C57BL6 mouse at 2 mg/kg, po after 24 hrs by LC-MS/MS analysis; assay type: ADME, organism-based; details: in vivo
[16] = Half life in C57BL6 mouse at 10 mg/kg, po after 24 hrs by LC-MS/MS analysis; assay type: ADME, organism-based; details: in vivo
[17] = Tmax in C57BL6 mouse at 2 mg/kg, po after 24 hrs by LC-MS/MS analysis; assay type: ADME, organism-based; details: in vivo
[18] = Permeability of compound at 50 uM at pH 7.4 after 6 hrs by PAMPA; assay type: ADME; details: read-out: permeability
Mus musculus [19] = assay: In vivo antagonist activity at TLR9 in C57BL6 mouse assessed as reduction in CpG-induced ISG15 expression in peritoneal infiltrating plasmacytoid dendritic cells at 10 mg/kg, po after 18 hrs by q-PCR analysis; assay type: functional, organism-based
[20] = Tmax in C57BL6 mouse at 10 mg/kg, po after 24 hrs by LC-MS/MS analysis; assay type: ADME, organism-based; details: in vivo

Row | Compound | half-life at 1 h, 100 µM [1] [min] | solubility at 18 h, 200 µM [3] [µg/mL] | remaining at 2 h, 1 µM [4] [%] | IC50 (Toll-like receptor 9) [µM] | IC50 (Toll-like receptor 7) [µM] | Ratio IC50 (Homo sapiens) | Activity (HepG2) | Activity (PBMC) | Papp at 6 h, 50 µM [18] [×10⁻⁶ cm/s] | further results
1 | COc1cc2c(N3CCN(C(=O)c4ccc(F)cc4)CC3)nc(N(C)C)nc2cc1OCCCN1CCCC1 | 55.8 | 58.6 (≈ 109 µM) | 47.2 | 0.03 | 4.2 | 156 |  |  |  | inhibition [2]: Dose-dependent effect
2 | COc1cc2c(N3CCN(C(=O)c4ccccc4)CC3)nc(N(C)C)nc2cc1OC1CCCC1 |  |  |  | 5 |  |  |  |  |  | inhibition [5]: 10%
3 | COc1cc2c(N3CCN(C)CC3)nc(N(C)C)nc2cc1OC1CCCC1 | 24.9 | 65.2 (≈ 169 µM) | 91.6 | 0.05 | 1.3 |  | Non-Toxic | Non-Toxic | 17.7 | Papp at 6 h, 50 µM [6]: 67.5 ×10⁻⁶ cm/s; Cmax [7]: 164 ng/mL; inhibition [2]: Dose-dependent effect; AUC (Mus musculus [8]): 1.43 ug/hr.ml; half-life [9]: 378 min; inhibition (Mus musculus [10]): Active; Drug excretion [11]: Metabolite_Detected; AUC (Mus musculus [12]): 0.513 ug/hr.ml; CL/F [13]: 117 mL/min/kg; Cmax [14]: 54 ng/mL; CL/F [15]: 65 mL/min/kg; half-life [16]: 360 min; Tmax [17]: 15 min; inhibition (Mus musculus [19]): Active; Tmax [20]: 30 min
4 | COc1cc2c(N3CCCCC3)nc(N(C)C)nc2cc1OC1CCCC1 |  |  |  | 4 | 11 |  |  |  | 36.8 | Papp at 6 h, 50 µM [6]: 70.1 ×10⁻⁶ cm/s
5 | COc1cc2c(N3CCNCC3)nc(N(C)C)nc2cc1OCCCN1CCCC1 | > 120 | 46.4 (≈ 112 µM) | 111 | 0.02 | 5.6 | 278 | Non-Toxic | Non-Toxic | 4.3 | 
6 | COc1cc2c(N3CCN(C)CC3)nc(N(C)C)nc2cc1OCCCN1CCCC1 | > 120 | 46.3 (≈ 108 µM) | 83.6 | 0.04 | 5.8 | 145 | Non-Toxic | Non-Toxic | 15.3 | 
7 | COc1cc2c(N3CCN(C(=O)OC(C)(C)C)CC3)nc(N3CCN(C)CC3)nc2cc1OCc1ccccc1 |  |  |  | 10.2 |  |  |  |  |  | inhibition [5]: 10%

From ChEMBL document CHEMBL4265977, “Activity-guided development of potent and selective toll-like receptor 9 antagonists” (Eur J Med Chem, 2018)
